This series is described as follows: Microscope observation of taurine crystals (Test Example 1). Conditions: observed with a microscope; for Maximum particle size (length) μm: length = major axis; for Maximum particle size (thickness) μm: thickness = minor axis. Format: physicochemical.

Molecules are shown by their SMILES.

Regarding `NCCS(=O)(=O)O` [Example 8, taurine], the Crystalline form result is listed as “Needle-”, the “Maximum particle size (length) μm” value worked out at 220 μm and the “Maximum particle size (thickness) μm” value stood at 30 μm.
The like results for `NCCS(=O)(=O)O` [Example 4, taurine] were, in that order, “Columnar”, 100 μm and 70 μm.
For `NCCS(=O)(=O)O` [Example 5, taurine], in that order: “Needle-”, 800 μm and 55 μm.
For `NCCS(=O)(=O)O` [Example 6, taurine], in that order: “Needle-”, 250 μm and 25 μm.
For the compound `NCCS(=O)(=O)O` [Example 3, taurine], the Crystalline form entry was “Columnar”, the “Maximum particle size (length) μm” value is recorded as 150 μm and the “Maximum particle size (thickness) μm” value came to 100 μm.
For `NCCS(=O)(=O)O` [Example 10, taurine], in that order: “Needle-”, 720 μm and 25 μm.
For `NCCS(=O)(=O)O` [Example 9, taurine], in that order: “Needle-”, 150 μm and 40 μm.
The like results for `NCCS(=O)(=O)O` [Example 2, taurine] were, in that order, “Columnar”, 150 μm and 80 μm.
With `NCCS(=O)(=O)O` [Example 1, taurine], the Crystalline form entry was “Columnar”, the “Maximum particle size (length) μm” value came out at 280 μm and the “Maximum particle size (thickness) μm” value was determined as 145 μm.
The like results for `NCCS(=O)(=O)O` [Example 11, taurine] were, in that order, “Needle-”, 370 μm and 20 μm.
`NCCS(=O)(=O)O` [Example 7, taurine]: the Crystalline form entry is given as “Needle-”, the “Maximum particle size (length) μm” value is recorded as 250 μm and the “Maximum particle size (thickness) μm” value was found to be 20 μm.
For `NCCS(=O)(=O)O` [Comparative Example 1, taurine], the Crystalline form result is “Massive”, the “Maximum particle size (length) μm” value is recorded as 700 μm and the “Maximum particle size (thickness) μm” value is listed as 160 μm.
For `NCCS(=O)(=O)O` [Comparative Example 3, taurine, reference compound], in that order: “Massive”, 6740 μm and 1680 μm.
For `NCCS(=O)(=O)O` [Comparative Example 2, taurine], in that order: “Massive”, 2000 μm and 300 μm.

For the origin of these results see patent US20250205185A1 (COSMED PHARMACEUTICAL CO., LTD., priority 2022, published 2025).
